Data taken from patent US20250311727A1, “SUBSTITUTED 2-AMINOAZINES AND SALTS THEREOF, AND USE THEREOF AS HERBICIDAL ACTIVE SUBSTANCES” (BAYER AKTIENGESELLSCHAFT, priority 2022, published 2025).

How the values were obtained:
Type in all cases: in vivo
Veronica persica [1] = assay: Post-emergence herbicidal efficacy at 320 g/ha, VERPE; details: rated visually after about 3 weeks vs untreated controls, 100% = plants have died
From the text: (§1) Unwanted plants/weeds: • ABUTH: Abutilon theophrasti • ALOMY: Alopecurus myosuroides • AMARE: Amaranthus retroflexus • DIGSA: Digitaria sanguinalis • ECHCG: Echinochloa crus-galli • KCHSC: Kochia scoparia • LOLRI: Lolium rigidum • MATIN: Matricaria inodora • POAAN: Poa annua • POLCO: Polygonum convolvulus • SETVI: Setaria viridis • STEME: Stellaria media • VERPE: Veronica persica • VIOTR: Viola tricolor A. Post-Emergence Herbicidal Efficacy at 320 g/ha
(§2) Seeds of mono- and dicotyledonous weed plants were placed in plastic pots in sandy loam soil (doubly sown with in each case one species of mono- or dicotyledonous weed plants per pot), covered with soil and cultivated in a greenhouse under controlled growth conditions. 2 to 3 weeks after sowing, the test plants were treated at the one-leaf stage. The compounds of the invention, formulated in the form of wettable powders (WP) or as emulsion concentrates (EC), were applied to the green parts of the plants as aqueous suspension or emulsion with addition of 0.5% additive at a water application rate equivalent to 600 litres per hectare. After the test plants had been kept in the greenhouse under optimum growth conditions for about 3 weeks, the activity of the preparations was rated visually in comparison to untreated controls.
(§3) For example, 100% activity=the plants have died, 0% activity=like control plants.
(§4) Tables A1 to A10 below show the effects of selected compounds of the general formula (I) according to Table 1 on various harmful plants and at an application rate corresponding to 320 g/ha, which were obtained by the trial procedure specified above.

Amaranthus retroflexus [2] = assay: Pre-emergence herbicide efficacy at 320 g/ha, AMARE; details: scored visually after about 3 weeks vs untreated controls, 100% = plants have died
From the text: as §1
(§5) Seeds of mono- and dicotyledonous weed plants were placed in plastic pots in sandy loam soil (doubly sown with one species each of mono- or dicotyledonous weed plants per pot) and covered with soil. The compounds of the invention, formulated in the form of wettable powders (WP) or as emulsion concentrates (EC), were then applied to the surface of the covering soil as aqueous suspension or emulsion with addition of 0.5% additive at a water application rate of 600 litres per hectare (converted). After the treatment, the pots were placed in a greenhouse and kept under good growth conditions for the test plants. After about 3 weeks, the efficacy of the preparations was scored visually in comparison with untreated controls as percentages.
as §3
(§6) Tables C1 to C12 below show the effects of selected compounds of the general formula (I) according to Table 1 on various harmful plants and at an application rate corresponding to 320 g/ha, which were obtained by the trial procedure specified above.

Kochia scoparia [3] = assay: Pre-emergence herbicide efficacy at 320 g/ha, KCHSC; details: scored visually after about 3 weeks vs untreated controls, 100% = plants have died
From the text: as §1, §5, §3, §6

Amaranthus retroflexus [4] = assay: Post-emergence herbicidal efficacy at 320 g/ha, AMARE; details: rated visually after about 3 weeks vs untreated controls, 100% = plants have died
From the text: as §1, §2, §3, §4

Matricaria inodora = assay: Pre-emergence herbicide efficacy at 320 g/ha, MATIN; details: scored visually after about 3 weeks vs untreated controls, 100% = plants have died
From the text: as §1, §5, §3, §6

Veronica persica [5] = assay: Post-emergence herbicidal efficacy at 80 g/ha, VERPE; details: rated visually after about 3 weeks vs untreated controls, 100% = plants have died
From the text: as §1
(§7) Seeds of monocotyledonous and dicotyledonous weeds and crop plants were placed in sandy loam in plastic or organic planting pots, covered with soil and cultivated in a greenhouse under controlled growth conditions. 2 to 3 weeks after sowing, the test plants were treated at the one-leaf stage. The compounds of the invention, formulated in the form of wettable powders (WP) or as emulsion concentrates (EC), were then sprayed onto the green parts of the plants as aqueous suspension or emulsion with addition of 0.5% additive at a water application rate of 600 l/ha (converted). After the test plants had been kept in the greenhouse under optimum growth conditions for about 3 weeks, the activity of the preparations was rated visually in comparison to untreated controls. For example, 100% activity=the plants have died, 0% activity=like control plants.
(§8) Tables B1 to B11 below show the effects of selected compounds of the general formula (I) according to Table 1 on various harmful plants and an application rate corresponding to 80 g/ha, which were obtained by the experimental procedure mentioned above.

Setaria viridis [6] = assay: Pre-emergence herbicide efficacy at 320 g/ha, SETVI; details: scored visually after about 3 weeks vs untreated controls, 100% = plants have died
From the text: as §1, §5, §3, §6

Kochia scoparia [7] = assay: Post-emergence herbicidal efficacy at 80 g/ha, KCHSC; details: rated visually after about 3 weeks vs untreated controls, 100% = plants have died
From the text: as §1, §7, §8

Setaria viridis [8] = assay: Pre-emergence herbicide efficacy at 80 g/ha, SETVI
From the text: as §1
(§9) Seeds of monocotyledonous and dicotyledonous weed plants and crop plants were placed in plastic or organic planting pots and covered with soil. The compounds of the invention, formulated in the form of wettable powders (WP) or as emulsion concentrates (EC), were then applied to the surface of the covering soil as aqueous suspension or emulsion with addition of 0.5% additive at a water application rate equivalent to 600 l/ha. After the treatment, the pots were placed in a greenhouse and kept under good growth conditions for the test plants. After about 3 weeks, the efficacy of the preparations was scored visually in comparison with untreated controls as percentages. For example, 100% activity=the plants have died, 0% activity=like control plants.
(§10) Tables D1 to D12 below show the effects of selected compounds of the general formula (I) according to Table 1 on various harmful plants and an application rate corresponding to 80 g/ha, which were obtained by the experimental procedure mentioned above.

Poa annua [9] = assay: Pre-emergence herbicide efficacy at 320 g/ha, POAAN; details: scored visually after about 3 weeks vs untreated controls, 100% = plants have died
From the text: as §1, §5, §3, §6

Veronica persica [10] = assay: Pre-emergence herbicide efficacy at 320 g/ha, VERPE; details: scored visually after about 3 weeks vs untreated controls, 100% = plants have died
From the text: as §1, §5, §3, §6

Amaranthus retroflexus [11] = assay: Post-emergence herbicidal efficacy at 80 g/ha, AMARE; details: rated visually after about 3 weeks vs untreated controls, 100% = plants have died
From the text: as §1, §7, §8

Abutilon theophrasti [12] = assay: Post-emergence herbicidal efficacy at 320 g/ha, ABUTH; details: rated visually after about 3 weeks vs untreated controls, 100% = plants have died
From the text: as §1, §2, §3, §4

Stellaria media [13] = assay: Pre-emergence herbicide efficacy at 320 g/ha, STEME; details: scored visually after about 3 weeks vs untreated controls, 100% = plants have died
From the text: as §1, §5, §3, §6

Amaranthus retroflexus [14] = assay: Pre-emergence herbicide efficacy at 80 g/ha, AMARE; details: scored visually after about 3 weeks vs untreated controls, 100% = plants have died
From the text: as §1, §9, §10

Echinochloa crus-galli [15] = assay: Pre-emergence herbicide efficacy at 320 g/ha, ECHCG; details: scored visually after about 3 weeks vs untreated controls, 100% = plants have died
From the text: as §1, §5, §3, §6

Kochia scoparia [16] = assay: Post-emergence herbicidal efficacy at 320 g/ha, KCHSC; details: rated visually after about 3 weeks vs untreated controls, 100% = plants have died
From the text: as §1, §2, §3, §4

Stellaria media [17] = assay: Post-emergence herbicidal efficacy at 320 g/ha, STEME; details: rated visually after about 3 weeks vs untreated controls, 100% = plants have died
From the text: as §1, §2, §3, §4

Viola tricolor = assay: Pre-emergence herbicide efficacy at 80 g/ha, VIOTR
From the text: as §1, §9, §10

Digitaria sanguinalis [18] = assay: Pre-emergence herbicide efficacy at 320 g/ha, DIGSA; details: scored visually after about 3 weeks vs untreated controls, 100% = plants have died
From the text: as §1, §5, §3, §6

Digitaria sanguinalis [19] = assay: Post-emergence herbicidal efficacy at 320 g/ha, DIGSA; details: rated visually after about 3 weeks vs untreated controls, 100% = plants have died
From the text: as §1, §2, §3, §4

Poa annua [20] = assay: Post-emergence herbicidal efficacy at 320 g/ha, POAAN; details: rated visually after about 3 weeks vs untreated controls, 100% = plants have died
From the text: as §1, §2, §3, §4

Abutilon theophrasti [21] = assay: Pre-emergence herbicide efficacy at 320 g/ha, ABUTH; details: scored visually after about 3 weeks vs untreated controls, 100% = plants have died
From the text: as §1, §5, §3, §6

Echinochloa crus-galli [22] = assay: Post-emergence herbicidal efficacy at 320 g/ha, ECHCG; details: rated visually after about 3 weeks vs untreated controls, 100% = plants have died
From the text: as §1, §2, §3, §4

Row | SMILES | Post-emergence efficacy at 320 g/ha against VERPE in % (Veronica persica [1]) [%] | Pre-emergence efficacy at 320 g/ha against AMARE in % (Amaranthus retroflexus [2]) [%] | Pre-emergence efficacy at 320 g/ha against KCHSC in % (Kochia scoparia [3]) [%] | Post-emergence efficacy at 320 g/ha against AMARE in % (Amaranthus retroflexus [4]) [%] | Pre-emergence efficacy at 320 g/ha against MATIN in % (Matricaria inodora) [%] | Pre-emergence efficacy at 320 g/ha against SETVI in % (Setaria viridis [6]) [%] | Pre-emergence efficacy at 320 g/ha against POAAN in % (Poa annua [9]) [%] | Pre-emergence efficacy at 320 g/ha against VERPE in % (Veronica persica [10]) [%] | Pre-emergence efficacy at 320 g/ha against STEME in % (Stellaria media [13]) [%] | Post-emergence efficacy at 320 g/ha against KCHSC in % (Kochia scoparia [16]) [%] | Post-emergence efficacy at 320 g/ha against STEME in % (Stellaria media [17]) [%] | Pre-emergence efficacy at 320 g/ha against DIGSA in % (Digitaria sanguinalis [18]) [%] | further results
1 | N#Cc1cccc(Nc2ncccn2)c1-n1cc(C(F)(F)F)cn1 [Example 1-40] | 90 | 100 | 90 | 90 | 90 | – | – | – | – | – | – | – | –
2 | Cc1cnn(-c2c(C#N)cccc2Nc2ncc(F)cn2)c1 [Example 1-67] | 100 | 100 | 100 | 100 | – | 100 | 90 | 90 | 100 | 90 | 100 | – | Post-emergence efficacy at 80 g/ha against VERPE in % (Veronica persica [5]): 90%; Post-emergence efficacy at 80 g/ha against KCHSC in % (Kochia scoparia [7]): 90%; Pre-emergence efficacy against SETVI (Setaria viridis [8]): 100%; Post-emergence efficacy at 80 g/ha against AMARE in % (Amaranthus retroflexus [11]): 100%; Post-emergence efficacy at 320 g/ha against ABUTH in % (Abutilon theophrasti [12]): 90%; Pre-emergence efficacy at 80 g/ha against AMARE in % (Amaranthus retroflexus [14]): 100%; Pre-emergence efficacy at 320 g/ha against ECHCG in % (Echinochloa crus-galli [15]): 100%; Pre-emergence efficacy against VIOTR (Viola tricolor): 90%
3 | N#Cc1cccc(Nc2ncc(F)cn2)c1-c1ccc(F)c(F)c1 [Example 1-30] | 100 | 100 | 90 | 100 | 90 | 100 | 90 | 100 | 100 | 100 | 100 | 100 | –
4 | N#Cc1cccc(Nc2ncc(Cl)cn2)c1-c1ccc(F)c(F)c1 [Example 1-29] | 100 | 100 | – | 100 | – | – | – | – | – | 100 | 90 | – | Post-emergence efficacy at 320 g/ha against DIGSA in % (Digitaria sanguinalis [19]): 90%
5 | N#Cc1cnc(Nc2cccc(C#N)c2-n2cc(C(F)(F)F)cn2)nc1 [Example 1-42] | 90 | 90 | 90 | 100 | 100 | 90 | – | – | 90 | 90 | – | 100 | –
6 | N#Cc1cccc(Nc2ncc(Cl)cn2)c1Cc1ccc(F)cc1 [Example 1-23] | 100 | 100 | – | 100 | 100 | 100 | 100 | 90 | 90 | – | 100 | 90 | Post-emergence efficacy at 320 g/ha against POAAN in % (Poa annua [20]): 100%
7 | FC(F)(F)CCCCc1ccccc1Nc1ncc(Cl)cn1 [Example 1-2] | 100 | – | – | 100 | – | – | – | – | – | 90 | – | – | Post-emergence efficacy at 320 g/ha against POAAN in % (Poa annua [20]): 90%
8 | Cc1cccc(Nc2ncc(F)cn2)c1-n1cc(C(F)(F)F)cn1 [Example 1-50] | 90 | 100 | – | 90 | – | 100 | 90 | 90 | 100 | – | 90 | 90 | Pre-emergence efficacy at 320 g/ha against ABUTH in % (Abutilon theophrasti [21]): 100%; Post-emergence efficacy at 320 g/ha against ABUTH in % (Abutilon theophrasti [12]): 90%; Pre-emergence efficacy at 320 g/ha against ECHCG in % (Echinochloa crus-galli [15]): 100%; Post-emergence efficacy at 320 g/ha against ECHCG in % (Echinochloa crus-galli [22]): 90%
